Experimental data from US8114871B2, “3-amido-pyrrolo[3,4-C]pyrazole-5(1H,4H,6H) carbaldehyde derivatives” (Pfizer Inc., priority 2007, dated 2012).

Biological target: Protein Kinase C beta 2 (PKCβII) (Homo sapiens, UniProt P05771)
Experiment: PKCβII coupled PK/LDH spectrophotometric kinase assay (decrease of NADH absorbance at 340 nm)
Format: biochemical
Details: apparent Ki, Morrison fit, 0.1 mM ATP, 30° C., pH 7.4; read-out: PKCb Ki
Description: This transfer is coupled to the oxidation of p-NADH through the activities of Pyruvate Kinase (PK) and Lactate Dehydrogenase (LDH).
A typical assay was carried out on a 96-well, clear microtiter plate in a Molecular Devices spectrophotometer for 20 minutes at 30° C. in 0.1 mL of assay buffer containing 50 mM HEPES, pH 7.4, 5 nM PKC, 23 units of pyruvate kinase, 33 units of lactate dehydrogenase, 0.15 mM peptide, 0.1 mM ATP, 1 mM DTT, 4 mM PEP, 8 mM MgCl2, 0.3 mM NADH, 60 mM CaCl2, 10 mg/mL PS, 50 ng/mL PMA, 7.5% DMSO and from about 10,000 nM to 0.169 nM compound inhibitor. Stock solutions of 3-sn-phosphatidyl-L-serine (PS) and phorbol-12-myristate-13-acetate (PMA) were sonicated for 30 seconds just prior to addition to assay buffer and assays were initiated by the addition of 100 μM ATP.
Enzyme turnover values (kcat) were calculated according to […], where [E] is the total enzyme concentration. […] Morrison, J. F., Biochim. Biophys Acta 185: 269-286 (1969).

Protein Kinase C beta 2 (PKCβII), sequence (P05771 1-673 isoform P05771-2): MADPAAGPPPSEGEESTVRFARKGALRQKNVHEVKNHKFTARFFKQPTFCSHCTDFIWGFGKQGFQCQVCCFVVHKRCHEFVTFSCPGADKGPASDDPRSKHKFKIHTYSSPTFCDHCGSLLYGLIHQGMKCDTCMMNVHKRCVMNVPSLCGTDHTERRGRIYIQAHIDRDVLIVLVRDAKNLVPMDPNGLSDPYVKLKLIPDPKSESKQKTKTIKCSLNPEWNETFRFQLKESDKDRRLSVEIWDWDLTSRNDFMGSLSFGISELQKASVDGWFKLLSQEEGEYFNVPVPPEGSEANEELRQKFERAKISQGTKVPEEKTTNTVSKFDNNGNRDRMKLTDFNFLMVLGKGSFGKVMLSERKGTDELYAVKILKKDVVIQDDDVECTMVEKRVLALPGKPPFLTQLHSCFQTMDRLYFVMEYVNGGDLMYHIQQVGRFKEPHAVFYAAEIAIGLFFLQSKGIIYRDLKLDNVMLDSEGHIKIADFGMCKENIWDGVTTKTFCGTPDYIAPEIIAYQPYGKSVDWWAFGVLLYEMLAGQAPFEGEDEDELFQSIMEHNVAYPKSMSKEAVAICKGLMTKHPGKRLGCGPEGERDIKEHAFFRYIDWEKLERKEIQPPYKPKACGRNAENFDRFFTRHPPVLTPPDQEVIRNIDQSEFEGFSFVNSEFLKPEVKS

- Ki: 37.5 nM
Structure (SMILES): CCOc1cccc(C(=O)Nc2n[nH]c3c2CN(C(=O)N2C[C@@H]4CCCN4C[C@@H]2C)C3(C)C)c1 [Example E5, N-(6,6-dimethyl-5-((3S,8aS)-3-methyl-octahydropyrrolo[1,2-a]pyrazine-2-carbonyl)-1,4,5,6-tetrahydropyrrolo[3,4-c]pyrazol-3-yl)-3-ethoxybenzamide]
